Laboratory results taken from patent US5688767A, “Treatment of endotoxin-associated disorders with cationic peptides” (priority 1996, dated 1997).

Tests used:
[1] = tested on: P. aeruginosa H309 Whole Cells; test: DPx binding inhibition using whole cells; parameters: species or system Pseudomonas aeruginosa; conditions: DPx at 90-100% binding saturation, average of at least three trials
Protocol: For DPx binding inhibition assays using whole cells instead of purified LPS, H309 cells were prepared the same way as for the lysozyme lysis assay. The assay consisted of 10 μl of cells at an OD600 of 0.5, 990 μl of 5 mM HEPES pH 7.2 and 5 mM KCN, and the concentration of DPx that gave 90-100% binding saturation. […] Compounds were titrated in, and I50 values were determined as described above.

S. aureus = test: microbe, parasite or virus in culture; type: cell-based, Staphylococcus aureus
Protocol: The minimum inhibitory concentrations of (MIC) of CEME, CEMA and melittin were determined for a number of different bacteria (Table 2). Briefly, cells were grown overnight at 37° C. in LB-S (Luria broth without any salt supplement) and diluted one in 10,000 in the same medium to give concentrations of about 10^4 to 10^5 CFU/ml. The broth dilutions were set up in a 96 well microtiter plate by putting 200 μl of LB-S containing the initial concentration of antibiotic or compound in column 1 and 100 μl of the same medium in columns 2-12. The compounds were diluted by taking 100 μl of broth from column 1 and mixing it with column 2, resulting in a one in two dilution. This was continued to column 10. Finally, 10 μl of bacteria were pipetted into columns 1-11, and the plates incubated overnight at 37° C. The next day the plates were scored for growth in the wells, and the MIC determined.

[2] = tested on: LPS-induced TNF in RAW 264.7 macrophage cells; test: Inhibition of LPS-mediated TNF induction in RAW 264.7 macrophages (L929 cytotoxicity readout); type: cell-based, murine; conditions: for Unit of TNF induced / Unit of TNF induced (% of control): 100 ng purified E. coli 0111:B4 LPS, 20 μg of peptide or polymyxin B; for block of induction of TNF: 20 μg/ml, E. coli 0111:B4 and E. coli Bort LPS; for block of LPS induction of TNF: added up to 60 minutes after LPS
Protocol: The effect of CEME and CEMA peptides on LPS-induced TNF in macrophages was examined. RAW 264.7 macrophage cells were grown by seeding 10^6 cells into a 162 cm^2 cell culture flask and incubated at 37° C., 5% CO2 for 1 week. RAW cell media (Dulbecco's Modified Eagle Medium with Hepes buffer 450 ml; 2.4 mM L-glutamine 3 ml (400 mM); Pen/Strep 3 ml (10^4 U/ml of Pen, 1 mg/ml strep); and 10% heat inactivated fetal bovine serum (FBS) 50 ml) was then completely removed from flasks. 10 mls of cell dissociation solution (Sigma) was added to each flask and incubated at 37° C. for 10 minutes. Cells were removed from flasks, diluted in RAW cell media and centrifuged for 6 minutes. The cell pellet was resuspended in 5 ml of media/flask used. […] cell suspension was removed and added to 400 μl of trypan blue and cells were counted using a hemocytometer. The cell suspension was diluted to 1×10^6cells/ml and 1 ml of suspension was added per well of a 24 well plate. The 24 well plates were incubated at 37° C., 5% CO2 overnight for use in the assay.
After an overnight incubation, the media was aspirated from all the wells. 100 μl of Lipopolysaccharide (LPS) was added at 100 ng/100 μl. CEME or CEMA was added at the desired concentration/100 μl to specified wells. […] The plates were then incubated for six hours at 37° C., 5% CO2. The supernatant was then removed from the wells and stored overnight at 4° C. For those wells in which whole bacteria were added directly to the wells, the supernatant was centrifuged in 0.2 μm filter eppendorf tubes for 5 minutes.
The supernatants were then used in cell cytotoxic L929 assay. The samples were transferred to 96 well plates. 50 μl of TNF media was added to all the wells in all the plates except to those wells in the first row. 10 μl of murine TNF standard (20 ng/ml) and 90 μl of TNF media was added in duplicate to the plate and diluted 1:2 down the plate to the second to last row. Test samples (75 μl), comprising of the supernatants from the RAW cell assays, were added to separate rows in duplicate and diluted 1:3 to the second to last rows.
TNF-sensitive L929 mouse fibroblast cells were grown by seeding 10^6 cells into a 162 cm^2 cell culture flask and left to grow for 1 week. L929 cells were removed from the flask with 10 mls of trypsin-EDTA/flask and incubated 3-5 minutes. Cell suspension was diluted and centrifuged for 6 minutes. The pellet was resuspended in 5 mls of fresh L929 media/flask and counted (same as RAW cells). Cell suspension was diluted to 10^6 cells/ml. 100 μl was used to inoculate each well of the 96 well plates with the supernatants. (L929 Growth Media was the same as RAW cell media except instead of FBS, 50 mls of 10% heat inactivated horse serum was utilized; TNF Assay Media was the same as RAW cell media except 4 μg/ml Actinomycin D was added.)
The plates were incubated at 37° C. at 5% CO2 for 2 days. The media was then aspirated and replaced with 100 μl of the dye MTT (0.5 mg/ml) in modified Eagle Medium without phenol red. The plates were then incubated at 37° C. at 5% CO2 for 3 hours. The dye was then removed and replaced with 100 μl of absolute ethanol. The plates were left at room temperature for 10-15 minutes to dissolve the formazan dye crystals.
The plates were read at 570 nm in a ELISA plate reader with 690 nm reference filter. One unit of TNF activity is defined as the amount required to kill 50% of the L929 cells. The TNF level in Units per ml therefore was the reciprocal of the dilution which led to a 50% killing of L929 cells. […]
The murine cell line RAW 264.7 was obtained from ATCC, (Rockville, Md.), and maintained and passaged as described previously (Kelly, et al., supra). TNF induction experiments with LPS were performed as described by Kelly, et al. (supra) Briefly, Dulbecco's modified Eagle medium was aspirated from RAW 264.7 cell grown overnight in 24 well tissue culture plates after seeding with 10^6 cell per ml per well and replaced with fresh medium. […]

[3] = strain RN4220, Methicillin sensitive
[4] = strain SAP0017, Methicillin resistant

Compound	I50, Value in μg/ml [1]	IC50 ([1]; read-out: I50, Value in μM)	MIC (S. aureus; [3])	MIC (S. aureus; [4])	concentration of peptide that efficiently reduces LPS-induced TNF ([2]; 100 ng of E. coli 0111:B4 or E. coli Bort LPS, 6 hour)	Unit of TNF induced [2]	Unit of TNF induced (% of control) [2]	reduction of TNF induction ([2]; 2 μg/ml of peptide, E. coli 0111:B4 LPS 100 ng/ml)	block of induction of TNF [2]	blockage of TNF induction, in words ([2]; 20-50 μg/ml of peptides, E. coli 0111:B4 LPS 100 ng/ml)	TNF produced by peptide alone ([2]; CEMA (20 μg) alone, no LPS)	block of LPS induction of TNF [2]
CC[C@H](C)[C@H](NC(=O)CNC(=O)[C@@H](NC(=O)[C@H](CCCCN)NC(=O)[C@H](CCCCN)NC(=O)[C@H](Cc1ccccc1)NC(=O)[C@H](CC(C)C)NC(=O)[C@H](CCCCN)NC(=O)[C@H](Cc1c[nH]c2ccccc12)NC(=O)[C@@H](N)CCCCN)[C@@H](C)CC)C(=O)NCC(=O)N[C@@H](C)C(=O)N[C@H](C(=O)N[C@@H](CC(C)C)C(=O)N[C@@H](CCCCN)C(=O)N[C@H](C(=O)N[C@@H](CC(C)C)C(=O)N[C@H](C(=O)N[C@H](C(=O)NCC(=O)N[C@@H](CC(C)C)C(=O)N1CCC[C@H]1C(=O)N[C@@H](C)C(=O)N[C@@H](CC(C)C)C(=O)N[C@@H](CCCCN)C(=O)N[C@@H](CC(C)C)C(=O)N[C@H](C(=O)N[C@@H](CCCCN)C(=O)O)[C@@H](C)O)[C@@H](C)O)[C@@H](C)O)C(C)C)C(C)C [CEMA]	1.15 ± 0.09 µg/mL	0.37 ± 0.03 µM	> 5.6 µg/mL	> 5.6 µg/mL	≤ 5 µg/mL	566 ± 69 units/ml	5.8%	more than 50%	approximately 100%	almost complete blockage	50 ± 3 units/ml	99%
polymyxin B	3.7 ± 1.20 µg/mL	–	> 8 µg/mL	> 8 µg/mL	–	573 ± 4 units/ml	5.8%	–	approximately 100%	–	–	81%
